Reference: patent publication US20120029190A1, “COMPOUNDS FOR TREATING DISORDERS MEDIATED BY METABOTROPIC GLUTAMATE RECEPTOR 5, AND METHODS OF USE THEREOF” (priority 2009, published 2012)
Like-named read-outs stand apart in the source and are kept apart here.

Biological target: T1, human recombinant mGluR5 receptor (Homo sapiens, UniProt P41594)
T1 construct: expressed in transfected cells; expression induced with doxycycline
Assay: mGluR5 in vitro functional assay (aequorin cell line, inhibition of glutamate EC80 response)
Assay type: cell-based
Experimental: B. mGluR5 In Vitro Functional Assay
The functional assay utilized an aequorin cell line expressing human recombinant mGluR5 receptor, an inducible cell line that expresses the human receptor under the control of a promoter induced by doxycycline.
mGluR5 cells in mid-log phase, grown 18 hours prior to the test in antibiotic-free media supplemented with doxycycline (600 ng/mL), were detached by gentle flushing with PBS-EDTA ([…]). The cells were recovered by centrifugation and resuspended in assay buffer (HBSS, […], 3 ug/mL glutamate-pyruvate transaminase, […] MEM sodium pyruvate, 0.1% BSA protease-free). Cells were incubated at room temperature for at least 4 hours with Coelenterazine h (Molecular Probes). The cell suspension (60 uL) containing the test compound was mixed with a solution of reference agonist (30 uL) at its EC80, following an incubation of 3 min. after the first injection. The resulting emission of light was recorded using a Hamamatsu Functional Drug Screening System 6000 (FDSS 6000). To standardize the emission of recorded light (determination of the “100% signal’) across plates and across different experiments, some of the wells contained 100 uM digitonin or a saturating concentration (20 mM) of ATP. Plates also contained the reference agonist (glutamate) at a concentration equivalent to the EC80 obtained during assay validation. Percentages of inhibition were calculated on the basis of the activation induced by the reference agonist at a concentration equal to the EC80. Dose-response data were analyzed with XLFit (IDBS) software using nonlinear regression applied to a sigmoidal dose-response model.

[1] = Table 1, aequorin cell line expressing human mGluR5, reference agonist glutamate at EC80, obtained in duplicate, read-out: IC50
[2] = Table 2, aequorin cell line expressing human mGluR5, reference agonist glutamate at EC80, obtained in duplicate, read-out: IC50

T1 sequence (P41594 21-1212): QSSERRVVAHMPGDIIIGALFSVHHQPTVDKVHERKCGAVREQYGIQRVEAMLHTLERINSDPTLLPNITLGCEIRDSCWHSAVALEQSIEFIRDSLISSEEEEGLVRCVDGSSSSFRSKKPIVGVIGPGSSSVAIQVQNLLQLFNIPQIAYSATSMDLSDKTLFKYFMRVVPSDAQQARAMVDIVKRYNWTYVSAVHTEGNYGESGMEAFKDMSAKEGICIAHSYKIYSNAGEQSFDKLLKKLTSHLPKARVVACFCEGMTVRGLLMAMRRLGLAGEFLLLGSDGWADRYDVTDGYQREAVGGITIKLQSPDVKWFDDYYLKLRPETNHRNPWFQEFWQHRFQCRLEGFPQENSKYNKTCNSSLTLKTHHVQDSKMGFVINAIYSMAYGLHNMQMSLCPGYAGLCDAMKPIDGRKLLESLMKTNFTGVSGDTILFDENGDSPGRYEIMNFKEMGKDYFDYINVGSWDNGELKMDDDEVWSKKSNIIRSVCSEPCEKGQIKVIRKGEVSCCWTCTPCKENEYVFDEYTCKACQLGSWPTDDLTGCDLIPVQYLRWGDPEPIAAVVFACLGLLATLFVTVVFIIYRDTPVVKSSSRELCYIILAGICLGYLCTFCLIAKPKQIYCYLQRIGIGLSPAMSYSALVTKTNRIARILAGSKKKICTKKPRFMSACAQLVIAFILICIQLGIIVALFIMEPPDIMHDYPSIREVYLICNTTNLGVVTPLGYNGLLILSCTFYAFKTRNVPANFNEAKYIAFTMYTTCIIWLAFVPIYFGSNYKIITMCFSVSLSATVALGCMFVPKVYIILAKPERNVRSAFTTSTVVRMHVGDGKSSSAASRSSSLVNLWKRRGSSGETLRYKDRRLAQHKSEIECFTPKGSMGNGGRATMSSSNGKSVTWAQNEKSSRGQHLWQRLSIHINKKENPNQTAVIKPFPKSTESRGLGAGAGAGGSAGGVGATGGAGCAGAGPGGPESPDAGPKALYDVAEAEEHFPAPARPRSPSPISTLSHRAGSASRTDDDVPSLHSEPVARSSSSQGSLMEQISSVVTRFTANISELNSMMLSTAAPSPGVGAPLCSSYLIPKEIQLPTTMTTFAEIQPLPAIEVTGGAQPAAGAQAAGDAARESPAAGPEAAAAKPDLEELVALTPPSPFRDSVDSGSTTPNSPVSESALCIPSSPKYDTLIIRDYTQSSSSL

`N#Cc1cc(F)cc(N2CCc3nc(-c4ccccn4)[nH]c3C2)c1` [Compound 111, 3-Fluoro-5-(2-(pyridin-2-yl)-6,7-dihydro-3H-imidazo[4,5-c]pyridin-5(4H)-yl)benzonitrile] showed an IC50 [1] of over 10000 nM.
Molecule `COc1ccc(-c2nc3c(o2)CCN(c2ncccc2C#N)C3)cc1` [Compound 43, 2-(2-(4-Methoxyphenyl)-6,7-dihydrooxazolo[4,5-c]pyridin-5(4H)-yl)nicotinonitrile] has an IC50 [1] of over 10000 nM.
`Fc1ccccc1N1CCc2oc(-c3ccccn3)nc2C1` [Compound 166, 5-(2-Fluorophenyl)-2-(pyridin-2-yl)-4,5,6,7-tetrahydrooxazolo[4,5-c]pyridine] gave an IC50 [2] of under 1000 nM.
Molecule `Clc1cccc(Cl)c1N1CCc2oc(-c3ccccn3)nc2C1` [Compound 174, 5-(2,6-Dichlorophenyl)-2-(pyridin-2-yl)-4,5,6,7-tetrahydrooxazolo[4,5-c]pyridine] has an IC50 [2] of under 1000 nM.
In the case of `CC(C)(c1ccccn1)c1nc2c(o1)CCN(c1cc(F)cc(C#N)c1)C2` [Compound 195, 3-Fluoro-5-(2-(2-(pyridin-2-yl)propan-2-yl)-6,7-dihydrooxazolo[4,5-c]pyridin-5(4H)-yl)benzonitrile], the IC50 [2] is reported as over 10000 nM.
In the case of `Fc1ccc(-c2nc3c(o2)CCCN(c2cccc(F)c2)C3)nc1` [Compound 133, 5-(3-fluorophenyl)-2-(5-fluoropyridin-2-yl)-5,6,7,8-tetrahydro-4H-oxazolo[4,5-c]azepine], the IC50 [2] is reported as under 1000 nM.
Work on `N#Cc1cncc(N2CCc3oc(-c4ccccn4)nc3C2)c1` [Compound 25, 5-(2-(Pyridin-2-yl)-6,7-dihydrooxazolo[4,5-c]pyridin-5(4H)-yl)nicotinonitrile] yielded an IC50 [1] of under 1000 nM.
`c1ccc(N2CCc3oc(-c4ccccn4)nc3C2)cc1` [Compound 126, 5-phenyl-2-(pyridin-2-yl)-4,5,6,7-tetrahydrooxazolo[4,5-c]pyridine] was tested, and the IC50 [2] was under 1000 nM.
`N#Cc1cc(F)cc(N2CCCc3oc(-c4ncccn4)nc3C2)c1` [Compound 203, 3-Fluoro-5-(2-(pyrimidin-2-yl)-7,8-dihydro-4H-oxazolo[4,5-c]azepin-5(6H)-yl)benzonitrile] showed an IC50 [2] of under 1000 nM.
`FC(F)(F)c1cccc(N2CCCc3nc(-c4ccccn4)oc3C2)c1` [Compound 95, 2-(Pyridin-2-yl)-5-(3-(trifluoromethyl)phenyl)-5,6,7,8-tetrahydro-4H-oxazolo[5,4-c]azepine] showed an IC50 [1] of under 10000 nM.
In the case of `Fc1cccc(N2CCCc3oc(-c4cnccn4)nc3C2)c1` [Compound 139, 5-(3-fluorophenyl)-2-(pyrazin-2-yl)-5,6,7,8-tetrahydro-4H-oxazolo[4,5-c]azepine], the IC50 [2] is reported as under 10000 nM.
For `N#Cc1ccc(N2CCc3oc(-c4ccccn4)nc3C2)cc1F` [Compound 36, 2-Fluoro-4-(2-(pyridin-2-yl)-6,7-dihydrooxazolo[4,5-c]pyridin-5(4H)-yl)benzonitrile], the IC50 was over 10000 nM.
In the case of `Clc1ccc(N2CCCc3oc(-c4ccccn4)nc3C2)cc1` [Compound 212, 5-(4-Chlorophenyl)-2-(pyridin-2-yl)-5,6,7,8-tetrahydro-4H-oxazolo[4,5-c]azepine], the IC50 [2] is reported as under 1000 nM.
`c1ccc(-c2nc3c(o2)CCN(c2cnccn2)C3)cc1` [Compound 49, 2-Phenyl-5-(pyrazin-2-yl)-4,5,6,7-tetrahydrooxazolo[4,5-c]pyridine] was tested, and the IC50 [1] was under 10000 nM.
Molecule `c1ccc(-c2nc3c(o2)CN(c2cccnc2)CC3)nc1` [Compound 5, 2-(Pyridin-2-yl)-5-(pyridin-3-yl)-4,5,6,7-tetrahydrooxazolo[5,4-c]pyridine] has an IC50 [1] of over 10000 nM.
For `Cc1cccc(-c2nc3c(o2)CCN(c2ncccc2C#N)C3)c1` [Compound 61, 2-(2-m-Tolyl-6,7-dihydrooxazolo[4,5-c]pyridin-5(4H)-yl)nicotinonitrile], the IC50 [1] was under 1000 nM.
`Cc1cccc(-c2nc3c(o2)CN(c2ccccn2)CC3)c1` [Compound 58, 5-(Pyridin-2-yl)-2-m-tolyl-4,5,6,7-tetrahydrooxazolo[5,4-c]pyridine] showed an IC50 [1] of under 1000 nM.
For `N#Cc1cccc(N2CCCc3nc(-c4ccccn4)oc3C2)c1` [Compound 93, 3-(2-(Pyridin-2-yl)-7,8-dihydro-4H-oxazolo[5,4-c]azepin-5(6H)-yl)benzonitrile], the IC50 [1] was under 1000 nM.
With `N#Cc1cccc(N2CCc3nc(-c4ccccn4)oc3C2)c1` [Compound 1, 3-(2-(Pyridin-2-yl)-6,7-dihydrooxazolo[5,4-c]pyridin-5(4H)-yl)benzonitrile] the IC50 [1] was under 1000 nM.
With `Fc1cccc(N2CCCc3oc(-c4ccncn4)nc3C2)c1` [Compound 136, 5-(3-fluorophenyl)-2-(pyrimidin-4-yl)-5,6,7,8-tetrahydro-4H-oxazolo[4,5-c]azepine] the IC50 [2] was under 1000 nM.
With `FC(F)(F)c1ccc(-c2nc3c(o2)CCN(c2cnccn2)C3)cc1` [Compound 45, 5-(Pyrazin-2-yl)-2-(4-(trifluoromethyl)phenyl)-4,5,6,7-tetrahydrooxazolo[4,5-c]pyridine] the IC50 [1] was over 10000 nM.
Molecule `Fc1cc(F)cc(N2CCCc3oc(-c4ccccn4)nc3C2)c1` [Compound 101, 5-(3,5-Difluorophenyl)-2-(pyridin-2-yl)-5,6,7,8-tetrahydro-4H-oxazolo[4,5-c]azepine] has an IC50 [1] of under 1000 nM.
`Fc1cccc(N2CCc3oc(-c4ccncn4)nc3C2)c1` [Compound 119, 5-(3-fluorophenyl)-2-(pyrimidin-4-yl)-4,5,6,7-tetrahydrooxazolo[4,5-c]pyridine] showed an IC50 [2] of under 10000 nM.
Work on `Clc1ccccc1N1CCc2oc(-c3ccccn3)nc2C1` [Compound 156, 5-(2-Chlorophenyl)-2-(pyridin-2-yl)-4,5,6,7-tetrahydrooxazolo[4,5-c]pyridine] yielded an IC50 [2] of under 1000 nM.
`N#Cc1cccc(-c2nc3c(o2)CCN(c2ccccn2)C3)c1` [Compound 62, 3-(5-(Pyridin-2-yl)-4,5,6,7-tetrahydrooxazolo[4,5-c]pyridin-2-yl)benzonitrile] showed an IC50 [1] of over 10000 nM.
Molecule `N#Cc1cc(F)cc(N2CCc3oc(-c4ccccn4)nc3C2)c1` [Compound 30, 3-Fluoro-5-(2-(pyridin-2-yl)-6,7-dihydrooxazolo[4,5-c]pyridin-5(4H)-yl)benzonitrile] has an IC50 [1] of under 1000 nM.
For `Clc1cccc(-c2cn3c(n2)CN(c2cccnc2)CC3)c1` [Compound 106, 2-(3-Chlorophenyl)-7-(pyridin-3-yl)-5,6,7,8-tetrahydroimidazo[1,2-a]pyrazine], the IC50 [1] was under 10000 nM.
`N#Cc1nccnc1N1CCc2oc(-c3ccccc3)nc2C1` [Compound 52, 3-(2-Phenyl-6,7-dihydrooxazolo[4,5-c]pyridin-5(4H)-yl)pyrazine-2-carbonitrile] gave an IC50 [1] of under 10000 nM.
`N#Cc1cc(N2CCCc3oc(-c4ccccn4)nc3C2)cc(F)c1F` [Compound 216, 2,3-Difluoro-5-(2-(pyridin-2-yl)-7,8-dihydro-4H-oxazolo[4,5-c]azepin-5(6H)-yl)benzonitrile] showed an IC50 [2] of under 1000 nM.
Work on `N#Cc1cccc(N2CCc3nc(-c4ccncc4)oc3C2)c1` [Compound 75, 3-(2-(Pyridin-4-yl)-6,7-dihydrooxazolo[5,4-c]pyridin-5(4H)-yl)benzonitrile] yielded an IC50 [1] of under 10000 nM.
`N#Cc1cc(F)cc(N2CCn3nc(-c4ccccn4)nc3C2)c1` [Compound 112, 3-Fluoro-5-(2-(pyridin-2-yl)-5,6-dihydro-[1,2,4]triazolo[1,5-a]pyrazin-7(8H)-yl)benzonitrile] was tested, and the IC50 [1] was under 1000 nM.
`N#Cc1cccc(N2CCc3nc(-c4cccnc4)oc3C2)c1` [Compound 77, 3-(2-(Pyridin-3-yl)-6,7-dihydrooxazolo[5,4-c]pyridin-5(4H)-yl)benzonitrile] was tested, and the IC50 [1] was over 10000 nM.
`N#Cc1cc(F)cc(N2CCCc3oc(-c4ccccn4)nc3C2)c1` [Compound 98, 3-Fluoro-5-(2-(pyridin-2-yl)-7,8-dihydro-4H-oxazolo[4,5-c]azepin-5(6H)-yl)benzonitrile] gave an IC50 [1] of under 1000 nM.
Work on `N#Cc1cccc(N2CCc3nc(-c4ccccn4)oc3C2)n1` [Compound 6, 6-(2-(Pyridin-2-yl)-6,7-dihydrooxazolo[5,4-c]pyridin-5(4H)-yl)picolinonitrile] yielded an IC50 [1] of under 10000 nM.
For `Clc1cncc(N2CCCc3oc(-c4ncccn4)nc3C2)c1` [Compound 201, 5-(5-Chloropyridin-3-yl)-2-(pyrimidin-2-yl)-5,6,7,8-tetrahydro-4H-oxazolo[4,5-c]azepine], the IC50 [2] was under 10000 nM.
Work on `N#Cc1nccnc1N1CCc2oc(-c3cccc(Cl)c3)nc2C1` [Compound 53, 3-(2-(3-Chlorophenyl)-6,7-dihydrooxazolo[4,5-c]pyridin-5(4H)-yl)pyrazine-2-carbonitrile] yielded an IC50 [1] of under 1000 nM.
`N#Cc1cc(F)cc(N2CCc3oc(-c4ncco4)nc3C2)c1` [Compound 80, 3-Fluoro-5-(2-(oxazol-2-yl)-6,7-dihydrooxazolo[4,5-c]pyridin-5(4H)-yl)benzonitrile] showed an IC50 [1] of under 10000 nM.
Work on `Fc1cc(N2CCc3oc(-c4ccccn4)nc3C2)cc(F)c1F` [Compound 153, 2-(Pyridin-2-yl)-5-(3,4,5-trifluorophenyl)-4,5,6,7-tetrahydrooxazolo[4,5-c]pyridine] yielded an IC50 [2] of under 1000 nM.
`c1ccc(-c2nc3c(o2)CCN(c2ccccn2)C3)nc1` [Compound 27, 2,5-Di(pyridin-2-yl)-4,5,6,7-tetrahydrooxazolo[4,5-c]pyridine] gave an IC50 [1] of under 1000 nM.
